Common to all, as to format: in vivo, human
One test relates to COVID-19 patients. The test can be described thus: CoDEX study dataset, dexamethasone vs placebo by Model C.4 subphenotype. From the text: The dataset from the CoDEX study was used for analysis. The CoDEX study involved treating COVID-19 patients with dexamethasone. K-means clustering was applied using Model C.4 described above in Table 70 and patients were separated into two clusters assigned to Subphenotype A and Subphenotype B. Tables 75A and 75B show the corresponding results.

In test [1] the test system is ARDS patients. The test can be described thus: LASRS study dataset, methylprednisolone vs placebo by Model C.4 subphenotype. As to conditions: for Dead 90: 1 0, Frequency: dead at 90 days; for Mortality: cohort receiving methylprednisolone. The source says: The dataset from the LASRS study was used for analysis. The LASRS study involved administration of corticosteroids, specifically methylprednisolone. K-means clustering was applied using Model C.4 described above in Table 70 and patients were separated into two subphenotypes based on the K-means cluster. Overall mortality was 40% in Subphenotype B and 28.57% in Subphenotype A (p = 0.3287). Within Subphenotype B, mortality rates were 40% regardless of whether the patient received methylprednisolone or a placebo; however, in Subphenotype A, mortality was 50% in the cohort receiving methylprednisolone, compared with 9.09% in the placebo cohort (p = 0.0382).

In test [2] the test system is ARDS patients. The test can be described thus: ARMA-KARMA-LARMA study dataset, lisofylline and ketoconazole vs placebo by subphenotype. As to conditions: active arm vs placebo; for Dead 90: 1 0, Percent: mortality. From the text:
The dataset from the ARMA-KARMA-LARMA study was used for analysis. Interventions in the study included lisofylline and ketoconazole.

Where [3] appears, read: Subphenotype A patients, not dead at 90 days.
Setting [4] is: Subphenotype B patients, not dead at 90 days.

On to `C[C@@H]1C[C@H]2[C@@H]3CCC4=CC(=O)C=C[C@]4(C)[C@@]3(F)[C@@H](O)C[C@]2(C)[C@@]1(O)C(=O)CO` [dexamethasone], for which, in the test with COVID-19 patients (Subphenotype A), the “28-day Mortality” value came out at 54.72%, the “Increase in number of vent free days versus placebo” value turned out to be 45% and the “Vent Free Days” value is reported as 8.81 days. Moreover, in the test with COVID-19 patients (Subphenotype B), the “28-day Mortality” value is 62.50%, the “Increase in number of ventilator free days versus placebo” value was determined as 101% and the “Vent Free Days” value came out at 5.09 days.
Turning to `C[C@H]1C[C@@H]2[C@H]([C@@H](O)C[C@@]3(C)[C@H]2CC[C@]3(O)C(=O)CO)[C@@]2(C)C=CC(=O)C=C12` [methylprednisolone], the “Dead 90: 1 0, Frequency” value in the test with ARDS patients [1] (Subphenotype A patients) was 5; in the test on ARDS patients [1] (Subphenotype B patients) it was 18; in the test on ARDS patients [2] (Subphenotype A patients) it was 11; in the test with ARDS patients [2] (Subphenotype B patients) it was 10. Besides, the “Dead 90: 1 0, Row Percent” value with ARDS patients [1] (Subphenotype A patients, mortality) was 50%. Moreover, the “Dead 90: 0 0, Frequency” value with ARDS patients [1] (setting [3]) worked out at 5; in the test on ARDS patients [1] (setting [4]), 27; in the test on ARDS patients [2] (Subphenotype A patients) it was 24; in the test on ARDS patients [2] (Subphenotype B patients), 15. In addition, the “Dead 90: 0 0, Row Percent” value with ARDS patients [1] (setting [3]) is on record as 50%. Further, the results for the Mortality in the test with ARDS patients [1] (Subphenotype A) and in the test on ARDS patients [1] (Subphenotype B) were 50% and 40%, respectively. For the same compound, the “Dead 90: 1 0, Percent” value in the test with ARDS patients [1] (Subphenotype B patients, mortality) stood at 40%; in the test on ARDS patients [2] (Subphenotype A patients), 31.43%; in the test with ARDS patients [2] (Subphenotype B patients), 40%. For the same compound, the “Dead 90: 0 0, Percent” value in the test with ARDS patients [1] (setting [4]) was determined as 60%; in the test on ARDS patients [2] (Subphenotype A patients), 68.57%; with ARDS patients [2] (Subphenotype B patients), 60%.

For the origin of these results see patent publication US20230290452A1, “Electronic Health Record (EHR)-Based Classifier for Acute Respiratory Distress Syndrome (ARDS) Subtyping” (Endpoint Health Inc., priority 2020, published 2023).
